Measured values from PMC7083880 (Nature Communications, 2020).

What was measured:
FTSJ1 = molecular target: T1, FTSJ1 (Homo sapiens, UniProt Q9UET6); experiment: DAP affinity column chromatography; type: binding; details: HeLa cell extract
T1 construct: host or cells: HeLa
T1 sequence (Q9UET6 1-329): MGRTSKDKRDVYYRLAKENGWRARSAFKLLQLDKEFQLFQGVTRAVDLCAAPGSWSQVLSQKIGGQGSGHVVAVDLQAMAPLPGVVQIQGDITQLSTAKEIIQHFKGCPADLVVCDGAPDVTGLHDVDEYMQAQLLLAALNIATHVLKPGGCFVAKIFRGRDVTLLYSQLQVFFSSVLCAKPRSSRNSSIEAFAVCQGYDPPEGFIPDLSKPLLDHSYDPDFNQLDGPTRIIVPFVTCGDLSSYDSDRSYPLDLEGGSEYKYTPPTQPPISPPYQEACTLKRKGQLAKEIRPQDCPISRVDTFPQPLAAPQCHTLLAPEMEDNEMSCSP
Text: Firefly luciferase from HEK293FT cells transfected with the Fluc-int-UGA construct was immunoprecipitated and digested with trypsin. The MS/MS spectrum of the peptide containing the PTC position and the sequence determination are shown. The upper red and blue sequences indicate the amino acids validated, respectively, by detection of Nter and Cter peptide fragments (b and y ion series). Peptide fragments y6 and y7 clearly identify tryptophan (W) at the PTC position. The black peaks correspond to non-attributed mass-to-charge ratio (m/z) values. […] Readthrough efficiency was determined by measuring luciferase activity in HeLa cells co-transfected with the firefly luciferase construct described in Fig. 1b and with increasing amounts of an expression vector for either FTSJ1 or CTU1 (0.5, 1, or 2 µg). The empty expression vector (E.v.) was used as control. […] The experiment was performed twice and the results of both experiments (Exp1 and Exp2) are shown. c Western blot analysis of FTSJ1 and CTU1. d 2′-O-methylation analysis of tRNA^Trp, tRNA^SER, and tRNA^GLN by RiboMethSeq. […] A molecular weight marker is indicated to the left of each gel. p-values (p) were calculated using Student’s t-test. Source data are provided as a Source Data file.
The eluate was analyzed by western blotting for the presence of various proteins, including FTSJ1. […]

HeLa cells = experiment: Toxicity assay: adenylate kinase activity in culture medium; type: cell-based, human
Protocol: The toxicity assay was performed 24 h after starting cell treatment. The cell culture supernatant was centrifuged at 6000×g for 10 min to pellet cells and cell debris. One-twentieth of the supernatant was then used to measure adenylate kinase activity according to the supplier’s protocol (Lonza Biosciences, Basel, Switzerland).

SMILES: Nc1nc(N)c2[nH]cnc2n1 [DAP, 2,6-diaminopurine]
- Binding to FTSJ1 (affinity column, western blot of eluate) (FTSJ1): binds to FTSJ1
- Adenylate kinase activity in culture medium (HeLa cells; DAP 0.39, 24 h, average): 387040
- Adenylate kinase activity in culture medium (HeLa cells; DAP 0.39, 24 h, experiment 1): 426825
- Adenylate kinase activity in culture medium (HeLa cells; DAP 0.39, 24 h, experiment 2): 354564
- Adenylate kinase activity in culture medium (HeLa cells; DAP 0.39, 24 h, experiment 3): 379730
- Adenylate kinase activity in culture medium (HeLa cells; DAP 0.78, 24 h, average): 423131
- Adenylate kinase activity in culture medium (HeLa cells; DAP 0.78, 24 h, experiment 1): 391755
- Adenylate kinase activity in culture medium (HeLa cells; DAP 0.78, 24 h, experiment 2): 521708
- Adenylate kinase activity in culture medium (HeLa cells; DAP 0.78, 24 h, experiment 3): 355930
- Adenylate kinase activity in culture medium (HeLa cells; DAP 100, 24 h, average): 360341
- Adenylate kinase activity in culture medium (HeLa cells; DAP 100, 24 h, experiment 1): 374460
- Adenylate kinase activity in culture medium (HeLa cells; DAP 100, 24 h, experiment 2): 518986
- Adenylate kinase activity in culture medium (HeLa cells; DAP 100, 24 h, experiment 3): 187576
- Adenylate kinase activity in culture medium (HeLa cells; DAP 300, 24 h, average): 386608
- Adenylate kinase activity in culture medium (HeLa cells; DAP 300, 24 h, experiment 1): 380370
- Adenylate kinase activity in culture medium (HeLa cells; DAP 300, 24 h, experiment 2): 536556
- Adenylate kinase activity in culture medium (HeLa cells; DAP 300, 24 h, experiment 3): 242898
- Adenylate kinase activity in culture medium (HeLa cells; DAP 600, 24 h, average): 369027
- Adenylate kinase activity in culture medium (HeLa cells; DAP 600, 24 h, experiment 1): 393840
- Adenylate kinase activity in culture medium (HeLa cells; DAP 600, 24 h, experiment 2): 349368
- Adenylate kinase activity in culture medium (HeLa cells; DAP 600, 24 h, experiment 3): 363874
- Adenylate kinase activity in culture medium (HeLa cells; DAP 1200, 24 h, average): 443419
- Adenylate kinase activity in culture medium (HeLa cells; DAP 1200, 24 h, experiment 1): 462690
- Adenylate kinase activity in culture medium (HeLa cells; DAP 1200, 24 h, experiment 2): 487071
- Adenylate kinase activity in culture medium (HeLa cells; DAP 1200, 24 h, experiment 3): 380497
- Adenylate kinase activity in culture medium (HeLa cells; DAP 2400, 24 h, average): 405551
- Adenylate kinase activity in culture medium (HeLa cells; DAP 2400, 24 h, experiment 1): 480750
- Adenylate kinase activity in culture medium (HeLa cells; DAP 2400, 24 h, experiment 2): 416958
- Adenylate kinase activity in culture medium (HeLa cells; DAP 2400, 24 h, experiment 3): 318945
